According to publication PMC8414802, “Hair Cell Generation in Cochlear Culture Models Mediated by Novel γ-Secretase Inhibitors” (Frontiers in Cell and Developmental Biology, 2021):

Test system: hair cell genes Atoh1, Pou4f3, Myo7a in OC explants
Experiment: Hair cell gene expression in organ of Corti explants (RT-PCR)
Format: cell-based, mouse
Details: 4 days, vs DMSO
Experimental: OC explants were isolated from postnatal day 2 (P2) Wistar rats, P0-P2 mice (Lgr5-GFP or Atoh1-nGFP mice). Dissection of the cochlea under a stereomicroscope (Nikon SMZ800, Japan) allowed OC separation from stria vascularis and modiolus, and the sensory epithelium was plated with hair cells facing up on Cell-Tak (Corning, United States)-coated transwell-clear inserts (6-well format, 0.4 μm pore, Corning, United States). Dissection medium was exchanged for 1.5 ml full otic medium supplemented with 10% FBS (Invitrogen) and 0.01% Ampicillin (Sigma), added under the insert membrane, maintaining the OC under a thin film of medium during culture at 37°C. 5-ethyl-2′-deoxyuridine (EdU, 5 μM, Life Technologies) was added directly in the medium when indicated.
Concentrations of small molecule GSIs {LY411575, CPD3, CPD8, DAPT (N-[N-(3,5-Difluorophenacetyl)-L-alanyl]-S-phenylglycine t-butyl ester; Sigma)} were prepared in DMSO and are indicated in Figure Legends and Results. DMSO included as Control. Treatment groups were assigned randomly.
Cells or tissue were lysed using RLT Lysis Buffer (Qiagen) and high purity RNA was prepared on the MagNA Pure instrument using MagNA Pure 96 Cellular RNA LV Kit (Roche). Reagents from Thermo Fisher were used for cDNA synthesis by reverse transcription using random hexamers. Resulting cDNA was RNAse H treated and amplified by TaqMan GEX mastermix and PCR primers and probes for human ATOH1 (Hs00944192_s1) and TBP (Hs00427620_m1), mouse Tbp (Mm00446971_m1), Atoh1 (Mm00476035_s1), Hes5 (Mm00439311_g1), Pouf4s (Mm04213795_s1), and Myo7a (Mm01274015_m1) on the Applied Biosystems QuantStudio 7 Flex Real-Time PCR System. Normalized to Tbp, relative gene expression fold-change was quantified and compared between experimental and control conditions by ΔΔCt calculation.
FIGURE 2 GSI-mediated induction of hair cell gene expression and de novo generation of hair cells in the neonatal cochlear sensory epithelium. (A) Gene expression changes of Atoh1, Pou4f3, and Myo7a in response to Notch pathway inhibition by CPD3 (solid lines, triangles) and CPD8 (dashed lines, open square) in otic spheres. Gene expression is reported as fold-change relative to carrier control-treated (DMSO, 0.05%). (n = 9–12). […] (B) Gene expression analysis for the hair cell genes Atoh-1, Myo7a, and Pou4f3. DMSO control n = 13, CPD3 n = 12, LY411575 n = 9, DAPT n = 6 from 2–4 independent experiments. OC explants were cultured for 4 days with/without GSI prior to lysis and analysis. One-way ANOVA with Dunnett’s multiple comparison test, each condition compared to DMSO control. (*p < 0.05, **p < 0.005, ***p < 0.001). (C) Cell counts of Atoh1 positive HCs (OHC left, IHC right) in the mouse cochlear sensory epithelium in the mid-apex region after 7 days in culture with different γ-secretase inhibitors. One-way ANOVA Dunnett’s multiple comparison test, each condition compared to DMSO control. (*p < 0.05; n = 3–5 independent experiments). (D) Quantification of Pou4f3 positive HCs (OHC left, IHC right) in the cochlear sensory epithelium from P2 rats in the apical domain after 8 days in culture with different γ-secretase inhibitors. One-way ANOVA with Dunnett’s multiple comparison test, each condition compared to DMSO control (*p < 0.05, n = 3). Representative immunohistological images of the apical domain after 8 days incubation (inset). scale bar = 20 μm. (E) Quantification of Pou4f3 positive OHCs in the apex, middle and basal domain of organ of Corti explants from rats after 4 days of CPD3 treatment compared to DMSO (*p < 0.05, unpaired t-test) n = 4–6 explants from 2 independent experiments.

| Structure (SMILES) | Atoh1 expression (1 μM) [fold] | Myo7a expression (1 μM) [fold] | Pou4f3 expression (1 μM) [fold] | Atoh1 expression (5 μM) [fold] | Myo7a expression (5 μM) [fold] | Pou4f3 expression (5 μM) [fold] |
| --- | --- | --- | --- | --- | --- | --- |
| COc1ccc2c(c1)N1CCC(C)(C)C1=CC(=O)[C@H]2NC(=O)[C@H](C)NC(=O)CCC(F)(F)F [CPD3] | 3.7 ± 0.54 | 1.73 ± 0.33 | 2.04 ± 0.35 | – | – | – |
| C[C@H](NC(=O)[C@@H](O)c1cc(F)cc(F)c1)C(=O)N[C@@H]1C(=O)N(C)c2ccccc2-c2ccccc21 [LY411575] | – | – | – | 4.34 ± 0.82 | 1.42 ± 0.31 | 1.46 ± 0.26 |
